Assay results from PMC12563520, “Asiatic Acid from Centella asiatica as a Potent EGFR Tyrosine Kinase Inhibitor with Anticancer Activity in NSCLC Cells Harboring Wild-Type and T790M-Mutated EGFR” (Biomolecules, 2025).
Like-named read-outs stand apart in the source and are kept apart here. Values belong to the molecule of their own block, whether it stands above or below them.

How the values were obtained:
[1] = system: p-Akt (Ser473) in H1975 cells; test: Western blot of p-Akt, H1975; type: cell-based, human; details: for p-Akt expression (fold), Mean: 24 h, vs DMSO
Description: (§1) Cells were plated at 200,000 cells/well in a 6-well plate and allowed to adhere for 24 h. They were then treated with the tested compound at varying concentrations for 24 h. For A549 cells, treatment was performed in serum-free medium for 24 h, followed by stimulation with 100 ng/mL human EGF for 10 min prior to harvesting. Cells were harvested by trypsinization, lysed in RIPA buffer [50 mM Tris-HCl (pH 7.4), 150 mM NaCl, 1% NP-40, 1% Na-deoxycholate, and 0.1% SDS] with protease and phosphatase inhibitors, and incubated on ice for 30 min. Lysates were centrifuged, and protein concentration was determined using the Bradford assay. Equal amounts (30 μg) were separated by 10% SDS-PAGE and transferred to a […] membrane (Immobilon®-P, Merck Millipore, Burlington, MA, USA). The membrane was blocked with 5% skim milk in 1X TBST and incubated overnight at 4 °C with primary antibodies (Table S2) diluted 1:1000 in 1% skim milk-TBST or 1% BSA-TBST. After washing, membranes were incubated at room temperature for 1 h with secondary antibodies—goat anti-Rabbit IgG or goat anti-Mouse IgG (Invitrogen, Waltham, MA, USA)—diluted 1:2000. Protein signals were detected using Luminata^TM Crescendo Western HRP Substrate (Merck Millipore) and imaged with an ImageQuant 800 system (GE Healthcare Bio-Sciences, Uppsala, Sweden). The auto exposure mode was selected to automatically adjust the exposure time to prevent image saturation. The detected signal was quantified using Image Studio Lite (version 5.2, LICORbio^TM, Lincoln, NE, USA).

[2] = system: cleaved PARP (Asp214) in H1975 cells; test: Western blot of cleaved PARP, H1975; type: cell-based, human; details: for cleaved PARP expression (fold), Mean: 24 h, vs 0 μM
Description: as §1

A549 cells [3] = test: Annexin V/PI apoptosis assay by flow cytometry, A549; type: cell-based, human; details: 24 h
Description: (§2) Cells were plated in a 6-well plate at a density of 200,000 cells/well and allowed to adhere overnight at 37 °C. The following day, cells were treated with increasing concentrations of asiatic acid for 24 h. […] After treatment, cells were harvested by trypsinization and centrifugation. The cell pellets were stained with FITC-conjugated Annexin V (640945; BioLegend, San Diego, CA, USA) and incubated for 30 min at room temperature in the dark. Propidium iodide (PI; P3566; Invitrogen^TM, Waltham, MA, USA) was then added, and apoptotic populations were analyzed using a BD FACSCalibur flow cytometer (BD Biosciences, Heidelberg, Germany).

[4] = system: BEAS-2B normal lung epithelial cells; test: MTT cell viability assay, BEAS-2B; type: cell-based, human
Description: (§3) Cells were seeded in a 96-well plate at 1,500 cells/well and incubated at 37 °C for 24 h. After incubation, the culture medium was replaced with fresh medium containing various concentrations of asiatic acid. Cells treated with 0.8% (v/v) DMSO served as the vehicle control. After 72 h, cells were incubated with 100 μL of MTT solution (0.5 mg/mL in PBS) for 4 h at 37 °C. The solution was then removed, 100 μL of DMSO was added, and the plate was protected from light with gentle agitation for 15 min. Absorbance was recorded at 540 nm using a Sunrise microplate reader (Tecan Group Ltd., Männedorf, Switzerland).

[5] = system: p-ERK (Thr202/Tyr204) in H1975 cells; test: Western blot of p-ERK, H1975; type: cell-based, human; details: for p-ERK expression (fold), Mean: 24 h, vs DMSO
Description: as §1

L858R/T790M EGFR = target: T1, L858R/T790M EGFR (Homo sapiens, UniProt P00533, L858R/T790M); test: ADP-Glo kinase assay, double-mutant EGFR; type: biochemical; details: mean ± SEM (n = 3), read-out: IC50 kinase inhibition, L858R/T790M EGFR
T1 construct: purchased Sigma-Aldrich SRP0242
Description: The EGFR inhibitory activity of the tested compound was measured using the ADP-Glo^TM assay (Promega, WI, USA) according to a previous study [28]. […] For the positive control, 2 μL of DMSO was added in place of the tested compound. For the negative control, the EGFR enzyme was omitted and replaced with 5 μL of 1X kinase buffer. The plate was protected from light and incubated at room temperature for 1 h, followed by the addition of 5 μL ADP-Glo^TM reagent and a further 40-min incubation. To convert ADP to ATP, 10 μL of kinase detection reagent was added, followed by a 30-min incubation under the same conditions. ATP levels were then measured using a Varioskan LUX multimode microplate reader (Thermo Fisher Scientific, Waltham, MA, USA), and percent inhibition was calculated using Equation (1).(1) Inhibition activity %=positive − negative−sample −negative/positive−negative ×100
The IC50 of each compound was calculated using GraphPad Prism software (version 8.0.2, GraphPad Software, Inc., Boston, MA, USA).

[6] = target: T2, EGFR protein in A549 cells (Homo sapiens, UniProt P00533); test: Cellular thermal shift assay (CETSA); type: binding; details: A549 cell lysates, 100 μM, 1 hour, heated at 40–60 °C, n = 2
T2 construct: endogenous in cells; host or cells: A549
Description: Figure S9. The cellular thermal shift assay. The stability of EGFR protein in A549 cells was assessed by treating cell lysates with either 0.2% DMSO or 100 μM asiatic acid for 1 hour. Following treatment, samples were heated at 40–60 °C for 3 minutes, rapidly cooled on ice for 10 minutes, and then centrifuged at 12,000 rpm at 4 °C for 30 minutes.
The supernatants were analyzed by Western blot, and relative band intensities were plotted against the corresponding heating temperatures. Data are expressed as mean ± […]
(1 picture or pasted object on this page, not shown here)

[7] = system: p-Akt (Ser473) in A549 cells; test: Western blot of p-Akt, A549; type: cell-based, human; details: for p-Akt expression (fold), Mean: 24 h, vs DMSO
Description: as §1

[8] = target: T3, p-EGFR (Tyr1068) in A549 cells (Homo sapiens, UniProt P00533); test: Western blot of p-EGFR, EGF-stimulated A549; type: cell-based; details: for p-EGFR expression (fold), Mean: A549, EGF-stimulated (+), vs DMSO (+)
T3 construct: endogenous in cells; host or cells: A549
Description: as §1

[9] = system: p-ERK (Thr202/Tyr204) in A549 cells; test: Western blot of p-ERK, A549; type: cell-based, human; details: for p-ERK expression (fold), Mean: 24 h, vs DMSO
Description: as §1

H1975 cells [10] = test: Annexin V/PI apoptosis assay by flow cytometry, H1975; type: cell-based, human; details: 24 h
Description: as §2, with “The cell pellets were stained with FITC-conjugated Annexin V (640945; BioLegend, San Diego, CA, USA) and incubated for 30 min at room temperature in the dark.” left out

A549 cells [11] = test: MTT cell viability assay, A549; type: cell-based; details: Homo sapiens, 72 h, mean ± SEM (n = 3)
Description: as §3

wild-type EGFR = target: T4, wild-type EGFR (Homo sapiens, UniProt P00533); test: ADP-Glo kinase assay, wild-type EGFR; type: biochemical; details: mean ± SEM (n = 3), read-out: IC50 kinase inhibition, Wild-Type EGFR
T4 construct: purchased Sigma-Aldrich SRP0239

H1975 cells [12] = test: MTT cell viability assay, H1975; type: cell-based; details: Homo sapiens, NCI-H1975
Description: as §3

[13] = target: fibroblast growth factor receptor (FGFR); test: FGFR kinase inhibition (selectivity); type: biochemical
[14] = target: T5, p-EGFR (Tyr1068) in H1975 cells (Homo sapiens, UniProt P00533, L858R/T790M); test: Western blot of p-EGFR, H1975; type: cell-based; details: H1975, 6.25–50 μM, dose-dependent
T5 construct: endogenous in cells; host or cells: H1975
Description: as §1, with “After washing, membranes were incubated at room temperature for 1 h with secondary antibodies—goat anti-Rabbit IgG or goat anti-Mouse IgG (Invitrogen, Waltham, MA, USA)—diluted 1:2000.” left out, “The auto exposure mode was selected to automatically adjust the exposure time to prevent image saturation.” left out

[15] = system: cleaved PARP (Asp214) in A549 cells; test: Western blot of cleaved PARP, A549; type: cell-based, human; details: for cleaved PARP expression (fold), Mean: 24 h, vs 0 μM
Description: as §1

[16] = A549, 100 μM, listed as AS-PN005

- IC50 (L858R/T790M EGFR): 0.000348 ± 5.5e-05 µM
- thermal stability of EGFR protein (CETSA) [6]: markedly enhanced the stability
- EGF-induced EGFR phosphorylation, in words ([8]; A549, 12.5–100 μM, concentration-dependent): significantly inhibited
- p-EGFR expression (fold), Mean ([8]; 12.5 μM): 0.75 fold
- p-EGFR expression (fold), Mean ([8]; 25 μM): 0.40 fold
- p-EGFR expression (fold), Mean ([8]; 50 μM): 0.36 fold
- p-EGFR expression (fold), Mean ([8]; 100 μM): 0.21 fold
- IC50 (A549 cells [11]): 64.5 ± 2.49 µM
- IC50 (wild-type EGFR): 0.035 ± 0.002 nM
- IC50 (H1975 cells [12]; H1975, MTT, 72 h, mean ± SEM (n = 3), read-out: IC50 cell viability): 36.6 ± 0.86 µM
- IC50 ([13]; Figure S8): 0.000471 µM
- selectivity for EGFR over FGFR ([13]; ratio of kinase IC50 values): approximately 13.5 fold
- p-EGFR levels, in words [14]: significantly reduced
SMILES: C[C@H]1[C@H](C)CC[C@]2(C(=O)O)CC[C@]3(C)C(=CC[C@@H]4[C@@]5(C)C[C@@H](O)[C@H](O)[C@@](C)(CO)[C@@H]5CC[C@]43C)[C@H]12 [Asiatic acid, asiatic acid]
- p-Akt expression (fold), Mean ([1]; H1975, 6.25 μM): 0.747 fold
- p-Akt expression (fold), Mean ([1]; H1975, 12.5 μM): 0.696 fold
- p-Akt expression (fold), Mean ([1]; H1975, 25 μM): 0.605 fold
- p-Akt expression (fold), Mean ([1]; H1975, 50 μM): 0.423 fold
- p-Akt level, in words ([1]; H1975, 6.25–50 μM, p < 0.0001): significant, dose-dependent decrease
- cleaved PARP expression (fold), Mean ([2]; H1975, 12.5 μM): 7.26 fold
- cleaved PARP expression (fold), Mean ([2]; H1975, 25 μM): 9.99 fold
- cleaved PARP expression (fold), Mean ([2]; H1975, 50 μM): 14.15 fold
- cleaved PARP expression, in words ([2]; H1975, 12.5–50 μM, p < 0.0001): significantly elevated
- increase of apoptotic cell population relative to DMSO-treated group (A549 cells [3]; A549, 100 μM): approximately threefold
- IC50 ([4]; Homo sapiens, BEAS-2B, 72 h, mean ± SEM (n = 3)): 184 ± 5.38 µM
- cytotoxicity in BEAS-2B cells ([4]; concentrations ≤100 μM (12.5–100 μM)): no notable cytotoxicity
- p-ERK expression (fold), Mean ([5]; H1975, 6.25 μM): 0.755 fold
- p-ERK expression (fold), Mean ([5]; H1975, 12.5 μM): 0.636 fold
- p-ERK expression (fold), Mean ([5]; H1975, 25 μM): 0.566 fold
- p-ERK expression (fold), Mean ([5]; H1975, 50 μM): 0.458 fold
- p-ERK level, in words ([5]; H1975, 6.25–50 μM, p < 0.0001): significant, dose-dependent decrease
- p-Akt expression (fold), Mean ([7]; A549, 12.5 μM): 0.454 fold
- p-Akt expression (fold), Mean ([7]; A549, 25 μM): 0.393 fold
- p-Akt expression (fold), Mean ([7]; A549, 50 μM): 0.336 fold
- p-Akt expression (fold), Mean ([7]; A549, 100 μM): reducing these proteins more than erlotinib
- p-Akt expression (fold), Mean [7, 16]: 0.147 fold
- p-Akt levels compared to the vehicle control, in words ([7]; A549, 12.5–100 μM): significantly decreased
- p-ERK expression (fold), Mean ([9]; A549, 12.5 μM): 0.427 fold
- p-ERK expression (fold), Mean ([9]; A549, 25 μM): 0.402 fold
- p-ERK expression (fold), Mean ([9]; A549, 50 μM): 0.294 fold
- p-ERK expression (fold), Mean ([9]; A549, 100 μM): reducing these proteins more than erlotinib
- p-ERK expression (fold), Mean [9, 16]: 0.103 fold
- p-ERK levels compared to the vehicle control, in words ([9]; A549, 12.5–100 μM): significantly decreased
- increase of apoptotic cell population relative to DMSO-treated group (H1975 cells [10]; H1975, 50 μM): about twofold
- viability at 100 µM (H1975 cells [12]; H1975, concentrations of ≥100 μM, read-out: cell viability): < 40%
- cleaved PARP expression (fold), Mean ([15]; A549, 25 μM): 3.12 fold
- cleaved PARP expression (fold), Mean ([15]; A549, 50 μM): 4.42 fold
- cleaved PARP expression (fold), Mean ([15]; A549, 100 μM): 6.86 fold
- cleaved PARP (Asp214) levels, in words ([15]; A549, 25–100 μM, p < 0.0001): significant, concentration-dependent increase

SMILES: C#Cc1cccc(Nc2ncnc3cc(OCCOC)c(OCCOC)cc23)c1 [Erlotinib, reference compound]
- increase of apoptosis compared to the untreated group (A549 cells [3]; A549, 10 μM): approximately twofold

SMILES: C=CC(=O)Nc1cc(Nc2nccc(-c3cn(C)c4ccccc34)n2)c(OC)cc1N(C)CCN(C)C [Osimertinib]
- increase of apoptosis compared to the untreated group (H1975 cells [10]; H1975, 5 μM): threefold
- viability at 3.125 µM (H1975 cells [12]; H1975, 3.125 μM, n = 3): 61.5%
- viability at 6.25 µM (H1975 cells [12]; H1975, 6.25 μM, n = 3): 44.8%
- viability at 12.5 µM (H1975 cells [12]; H1975, 12.5 μM, n = 3): 23.8%
- viability at 25 µM (H1975 cells [12]; H1975, 25 μM, n = 3): 12.1%
- viability at 50 µM (H1975 cells [12]; H1975, 50 μM, n = 3): 7.89%
- viability at 100 µM (H1975 cells [12]; H1975, 100 μM, n = 3, read-out: Cell viability (%) Mean): 0.43%
- IC50 (H1975 cells [12]; Table S1, n = 3, read-out: IC50 (μM) Mean, H1975 cell viability): 4.14 µM
